{"source": "patent US20080124413A1", "about": "“NOVEL COMPOSITION CONTAINING EXTRACTS OF BUTYROSPERMUM PARKII AND THE USE OF SUCH A COMPOSITION FOR PREPARING A MEDICAMENT OR A DIETARY SUPPLEMENT FOR THE TREATMENT OR PREVENTION OF INFLAMMATION […] OR PAIN” (BSP Pharma A/S, priority 1999, published 2008)", "key": {"[1]": {"system": "BALB/c mouse arthritis induced by collagen mono-clonal antibody (mAb) and lipopolysaccharide", "format": "in vivo", "conditions": "cyclophosphamide 10 mg/kg x3 orally, p<0.05 Wilcoxon", "procedure": "BPC was dissolved in 100% corn oil. […] Dosing volume was 5 ml/kg.\nIn this study, male BALB/c mice weighing 20±1 grams were used. Space allocation for 5 mice was 45×23×15 cm. The animals were housed in APEC® (Allentown Gaging, Allentown, N.J. 08501, U.S.A.) cages and maintained in a hygienic environment under controlled temperature (22° C.-24° C.) and humidity (60%-80%) with 12-hours light/dark cycles for at least one week prior to being used. Free access to standard lab chow for mice and tap water was granted. All aspects of this work including housing, experimentation and disposal of animals were performed in general according to the International Guiding Principles for Biomedical Research Involving Animals (CIOMS Publication No. ISBN 92 90360194, 1985).\nThe study was performed according to the method of Terato et al. (Autoimmunity, 22:137-147, 1995).\nGroups of 5 BALB/c mice, 6-8 weeks of age, were used for the induction of arthritis by monoclonal antibodies (mAbs) and lipopolysaccharide (LPS). […] This was followed by intravenous 25 μg of LPS 72 hours later (day 3). From day 3, test substances were administered orally once daily for 3 consecutive days. At day 5, one or two paws (particularly the hind) began to appear red and swollen, and from day 7, arthritis symptoms of the two hind paws became severely red and swollen in untreated mice. A plethysmometer (Ugo Basile Cat # 7150) with water cell (12 mm diameter) was used for the measurement of increase in both hind paw volumes at day 7, 10, 14 and 17. The percent of inhibition of increased paw volume was calculated as follows:\nInhibition (%): [1−(Tn−To)/(Cn−Co)]×100\nCo (Cn): Volume of day 0 (day n) in vehicle control (both hind paws summed)\nTo (Tn): Volume of day 0 (day n) in test compound-treated group (both hind paws summed)\nWilcoxon rank sum test for paired differences was used for comparing swelling in the test compound treated groups with swelling in the control group."}, "rat": {"system": "rat", "conditions": "The Merck Index; cited from earlier work"}}, "note": "Where two headings read alike, the source gives them in different places.", "data": [{"smiles": "O=P1(N(CCCl)CCCl)NCCCO1", "note": "(stereo not shown) [cyclophosphamide]", "values": [{"measurement": "reduction of hind paw edema relative to the vehicle-treated control group", "setting": "[1]; day 10", "result": 79, "unit": "%"}, {"measurement": "reduction of hind paw edema relative to the vehicle-treated control group", "setting": "[1]; day 14", "result": 91, "unit": "%"}, {"measurement": "reduction of hind paw edema relative to the vehicle-treated control group", "setting": "[1]; day 17", "result": 90, "unit": "%"}, {"measurement": "LD50", "setting": "rat", "result": 94, "unit": "mg/kg"}]}]}
